In patent publication US5770573A, “CS-1 peptidomimetics, compositions and methods of using the same” (Cytel Corporation, priority 1995, dated 1998):
Numbered stars: 1 amine (or outer) side, 2 acyl side, 3 side chain; on linkers, the order of the positions; unused ones are H or OH. Square brackets hold non-standard residues; d marks the D form. Peptide text beside a SMILES is read from it. * marks the point of attachment. Cha = N[C@@H](CC1CCCCC1)C(=O)O; Tle = CC(C)(C)[C@H](N)C(=O)O; Nicotinoyl = O=C(c1cccnc1)*; PhAc = O=C(Cc1ccccc1)*; CO = O=C([*:1])[*:2]; Bz = O=C(c1ccccc1)*; NHPh = c1ccc(N*)cc1

Each molecule was assayed against VLA-4 (Homo sapiens, UniProt P05556+P13612) (assay: In vitro binding inhibition of 51Cr-labeled Jurkat cells to solid phase-bound CS-1 compound (SEQ ID NO:1)). Conditions: not given.
VLA-4, sequence (P13612 34-1032): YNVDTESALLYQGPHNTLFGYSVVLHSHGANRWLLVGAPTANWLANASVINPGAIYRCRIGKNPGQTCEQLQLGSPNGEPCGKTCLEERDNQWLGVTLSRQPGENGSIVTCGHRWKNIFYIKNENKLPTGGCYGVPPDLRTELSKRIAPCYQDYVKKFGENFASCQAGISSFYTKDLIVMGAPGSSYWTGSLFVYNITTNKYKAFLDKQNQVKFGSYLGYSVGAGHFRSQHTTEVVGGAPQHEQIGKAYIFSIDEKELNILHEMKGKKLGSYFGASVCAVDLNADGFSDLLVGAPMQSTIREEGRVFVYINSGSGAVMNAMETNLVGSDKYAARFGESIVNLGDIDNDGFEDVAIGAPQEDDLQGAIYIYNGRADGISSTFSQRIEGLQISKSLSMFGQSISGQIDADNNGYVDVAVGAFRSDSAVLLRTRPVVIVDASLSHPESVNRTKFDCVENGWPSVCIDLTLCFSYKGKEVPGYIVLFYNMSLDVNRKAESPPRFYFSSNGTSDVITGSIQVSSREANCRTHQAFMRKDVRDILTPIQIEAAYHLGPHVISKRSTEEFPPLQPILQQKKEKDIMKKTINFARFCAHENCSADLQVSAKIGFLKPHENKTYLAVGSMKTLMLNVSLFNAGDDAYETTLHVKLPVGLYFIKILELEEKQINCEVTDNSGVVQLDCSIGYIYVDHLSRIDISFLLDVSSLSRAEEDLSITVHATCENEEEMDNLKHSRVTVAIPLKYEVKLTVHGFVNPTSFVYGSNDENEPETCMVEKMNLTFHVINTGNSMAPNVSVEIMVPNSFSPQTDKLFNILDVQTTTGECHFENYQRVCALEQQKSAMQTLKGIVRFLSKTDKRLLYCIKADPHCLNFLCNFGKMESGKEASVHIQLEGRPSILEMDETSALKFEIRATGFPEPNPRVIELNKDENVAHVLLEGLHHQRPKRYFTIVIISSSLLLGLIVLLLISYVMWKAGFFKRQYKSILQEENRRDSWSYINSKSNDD
VLA-4, sequence (P05556 21-798): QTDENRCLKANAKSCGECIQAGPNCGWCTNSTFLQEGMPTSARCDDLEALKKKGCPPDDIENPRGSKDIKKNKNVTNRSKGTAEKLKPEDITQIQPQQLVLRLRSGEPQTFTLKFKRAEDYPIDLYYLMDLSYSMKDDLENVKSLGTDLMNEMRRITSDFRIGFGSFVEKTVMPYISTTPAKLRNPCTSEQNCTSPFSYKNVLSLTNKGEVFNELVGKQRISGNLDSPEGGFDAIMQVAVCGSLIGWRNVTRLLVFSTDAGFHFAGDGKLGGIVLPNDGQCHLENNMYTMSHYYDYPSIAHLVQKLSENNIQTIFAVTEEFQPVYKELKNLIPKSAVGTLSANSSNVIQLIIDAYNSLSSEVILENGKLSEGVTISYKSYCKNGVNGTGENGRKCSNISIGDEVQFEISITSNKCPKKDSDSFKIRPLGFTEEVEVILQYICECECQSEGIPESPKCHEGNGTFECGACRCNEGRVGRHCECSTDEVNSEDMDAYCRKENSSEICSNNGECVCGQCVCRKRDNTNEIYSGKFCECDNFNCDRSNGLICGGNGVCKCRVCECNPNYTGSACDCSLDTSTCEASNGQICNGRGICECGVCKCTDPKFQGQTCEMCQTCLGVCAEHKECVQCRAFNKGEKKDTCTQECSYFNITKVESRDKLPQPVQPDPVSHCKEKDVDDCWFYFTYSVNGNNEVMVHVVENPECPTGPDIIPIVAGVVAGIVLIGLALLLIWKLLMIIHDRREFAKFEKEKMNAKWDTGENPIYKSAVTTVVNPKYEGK
Format: cell-based
Design: inflammatory cells that contain the VLA-4 receptor [Jurkat cells; host or cells: Jurkat (human T lymphoblastic line)
Protocol: Binding inhibition is measured here as a concentration of compound that inhibits one-half the binding between a standard number of Jurkat cells and a standard amount of CS-1 compound bound to the surface of a microtiter plate well. Those concentrations are conveniently expressed as IC50 values, smaller numbers indicating a lower concentration required to inhibit 50 percent binding and therefore greater potency. Further specifics of this assay are provided hereinafter.
Jurkat cells (ATCC TIB 152), a human T lymphoblastic line, labeled with ^51 chromium were used to assay in vitro binding inhibition provided by various compounds discussed herein.
The plates were prepared as follows: The 25-mer CS-1 compound (SEQ ID NO:1) dissolved at 0.5-1 μg/ml in a buffer of 0.1M NaHCO3 at pH 9.5 that also contained 10 μg/ml of bovine serum albumin (BSA) or a conjugate of the CS-1 compound linked to […] (CS-1-OVA) dissolved at 1-2.5 μg/ml in the same buffer was used as the substrate. Each well of the microtiter plates was coated with 50 μl of substrate or buffer alone for controls. The wells were permitted to dry out completely and were then rinsed twice with PBS at pH 7.4. Non-specific binding sites of each well were then blocked using 200 μl per well of RPMI/1 percent BSA for two hours at room temperature.
Jurkat cells (3-5×10^6 cells) were placed into a 15 ml Falcon™ round-bottom tube with a cap. The tube was centrifuged, and the extra medium was then removed.
Two hundred microliters of a ^51 Cr labeling solution were added to the centrifuged cells and maintained in contact with the cells for 90-120 minutes in a warm room. […] Longer contact times provide a greater amount of labeling but lower cell viability.
The labeled cells are washed with (i) complete medium, (ii) 1 mM EDTA/PBS and then (iii) RPM1/1 percent BSA free of serum components. The cells are centrifuged after each washing. The cells are finally resuspended in serum-free RPMI/1 percent BSA at a concentration of 1×10^6 viable cells/ml, which provides a concentration that is diluted by one-half in the assay.
Inhibitor compounds are prepared as stock solutions at 20 mg/ml in DMSO in 1.5 ml cryogenic screwcap vials, and were stored at -70° C. Using Flow™ round-bottom or V-bottom microtiter plates, the inhibitor compounds were prepared at twice the assay concentration in RPMI/1 percent BSA at 60 μl/well.
Four initial dilutions were typically used.
The ^51 Cr-labeled cells ([…] at 60 μl/well) were then admixed with the diluted compound solutions. The admixtures were maintained at room temperature (about 22° C.) for 30 minutes.
One hundred microliters of each inhibitor compound/cell admixture were transferred to the substrate-coated wells. This was done in triplicate for each dilution. The resulting plates were incubated for 30 minutes at 37° C. and then washed gently three times with RPMI/1 percent BSA at 200 μl/well. Binding was observed microscopically, particularly after the second wash.
The bound cells were then lysed by the addition of a 0.5 percent solution of sodium dodecylsulfate in water at 100 μl/well. The resulting solutions were then processed for counting and calculation of IC50 values following usual procedures.
The data of Table 1 are normalized to the binding of SEQ ID NO: 3. […] Multiple assays for the same compound were averaged.
With `CC[C@H](C)[C@H](N)C(=O)N[C@@H](CC(C)C)C(=O)N[C@@H](CC(=O)O)C(=O)N[C@H](C(=O)N1CCC[C@H]1C(N)=O)C(C)C` [886.03] the “Relative Potency” value was 1.55.
In the case of `CC[C@H](C)[C@H](N)C(=O)N[C@@H](CC(C)C)C(=O)N[C@@H](CC(=O)O)C(=O)N[C@H](C(=O)N1CCC[C@H]1C(=O)O)C(C)C` [886.05] (H-ILDVP-OH), the “Relative Potency” value is reported as 2.
In the case of `CC[C@H](C)[C@H](N)C(=O)N[C@@H](CC(C)C)C(=O)N[C@@H](CC(=O)O)C(=O)N[C@H](C(=O)N1CCC[C@@H]1C(N)=O)C(C)C` [886.10], the “Relative Potency” value is reported as 5.38.
For `CC[C@H](C)[C@H](N)C(=O)N[C@@H](CC(C)C)C(=O)N[C@@H](CC(=O)O)C(=O)N[C@@H](Cc1ccccc1)C(=O)N1CCC[C@@H]1C(N)=O` [896.26] (H-ILDF[dP]-NH2), the “Relative Potency” value was 5.63.
`CC(C)C[C@H](NC(=O)[C@@H](N)Cc1ccccc1)C(=O)N[C@@H](CC(=O)O)C(=O)N[C@@H](Cc1ccccc1)C(=O)N1CCC[C@@H]1C(N)=O` [896.27] (H-FLDF[dP]-NH2) was tested, and the “Relative Potency” value was 16.9.
In the case of `CC[C@H](C)[C@H](N)C(=O)N[C@@H](CC1CCCCC1)C(=O)N[C@@H](CC(=O)O)C(=O)N[C@@H](Cc1ccccc1)C(=O)N1CCC[C@@H]1C(N)=O` [896.29] (H-I[Cha]DF[dP]-NH2), the “Relative Potency” value is reported as 2.27.
With `NC(=O)[C@H]1CCCN1C(=O)[C@H](Cc1ccccc1)NC(=O)[C@H](CC(=O)O)NC(=O)[C@H](CC1CCCCC1)NC(=O)[C@@H](N)Cc1ccccc1` [896.30] (H-F[Cha]DF[dP]-NH2) the “Relative Potency” value was 2.69.
For `CC[C@H](C)[C@H](N)C(=O)N[C@@H](CC1CCCCC1)C(=O)N[C@@H](CC(=O)O)C(=O)N[C@H](C(=O)N1CCC[C@@H]1C(N)=O)C(C)C` [896.32] (H-I[Cha]DV[dP]-NH2), the “Relative Potency” value was 1.41.
For `CC(C)[C@H](NC(=O)[C@H](CC(=O)O)NC(=O)[C@H](CC1CCCCC1)NC(=O)[C@@H](N)Cc1ccccc1)C(=O)N1CCC[C@@H]1C(N)=O` [896.33] (H-F[Cha]DV[dP]-NH2), the “Relative Potency” value was 2.61.
`Cc1cccc(C)c1C(=O)N[C@@H](CC(C)C)C(=O)N[C@@H](CC(=O)O)C(=O)N[C@H](C(=O)N1CCC[C@@H]1C(N)=O)C(C)C` [896.36] was tested, and the “Relative Potency” value was 3.13.
With `Cc1ccc(C(=O)N[C@@H](CC(C)C)C(=O)N[C@@H](CC(=O)O)C(=O)N[C@H](C(=O)N2CCC[C@@H]2C(N)=O)C(C)C)cc1C` [896.37] the “Relative Potency” value was 5.01.
`Cc1cccc(C(=O)N[C@@H](CC(C)C)C(=O)N[C@@H](CC(=O)O)C(=O)N[C@H](C(=O)N2CCC[C@@H]2C(N)=O)C(C)C)c1C` [896.38] was tested, and the “Relative Potency” value was 6.57.
For `CC(C)C[C@H](NC(=O)CCc1ccccc1)C(=O)N[C@@H](CC(=O)O)C(=O)N[C@H](C(=O)N1CCC[C@@H]1C(N)=O)C(C)C` [896.40], the “Relative Potency” value was 5.32.
`CC(C)C[C@H](NC(=O)c1cccnc1)C(=O)N[C@@H](CC(=O)O)C(=O)N[C@H](C(=O)N1CCC[C@@H]1C(N)=O)C(C)C` [896.42] was tested, and the “Relative Potency” value was 38.1.
In the case of `CC(C)C[C@H](NC(=O)c1ccc2ccccc2c1)C(=O)N[C@@H](CC(=O)O)C(=O)N[C@H](C(=O)N1CCC[C@@H]1C(N)=O)C(C)C` [896.44], the “Relative Potency” value is reported as 2.5.
`CC(C)C[C@H](NC(=O)CCC1CCCCC1)C(=O)N[C@@H](CC(=O)O)C(=O)N[C@H](C(=O)N1CCC[C@@H]1C(N)=O)C(C)C` [896.45] was tested, and the “Relative Potency” value was 1.75.
In the case of `CCC(C)CC(=O)N[C@@H](CC(C)C)C(=O)N[C@@H](CC(=O)O)C(=O)N[C@H](C(=O)N1CCC[C@@H]1C(N)=O)C(C)C` (stereo partly drawn) [896.46], the “Relative Potency” value is reported as 6.57.
With `CC(C)CCC(=O)N[C@@H](CC(C)C)C(=O)N[C@@H](CC(=O)O)C(=O)N[C@H](C(=O)N1CCC[C@@H]1C(N)=O)C(C)C` [896.47] the “Relative Potency” value was 5.01.
In the case of `CC(C)C[C@H](NC(=O)CC1CCCCC1)C(=O)N[C@@H](CC(=O)O)C(=O)N[C@H](C(=O)N1CCC[C@@H]1C(N)=O)C(C)C` [896.48], the “Relative Potency” value is reported as 3.76.
`CC(C)C[C@H](NC(=O)C1CCCCC1)C(=O)N[C@@H](CC(=O)O)C(=O)N[C@H](C(=O)N1CCC[C@@H]1C(N)=O)C(C)C` [896.49] was tested, and the “Relative Potency” value was 9.08.
For `CC(C)C[C@H](NC(=O)C12CC3CC(CC(C3)C1)C2)C(=O)N[C@@H](CC(=O)O)C(=O)N[C@H](C(=O)N1CCC[C@@H]1C(N)=O)C(C)C` [896.50], the “Relative Potency” value was 1.38.
For `CC(C)C[C@@H](C(=O)N[C@@H](CC(=O)O)C(=O)N[C@H](C(=O)N1CCC[C@@H]1C(N)=O)C(C)C)N1C(=O)c2ccccc2C1=O` [896.51], the “Relative Potency” value was 110.
`CC(C)C[C@H](NC(=O)c1ccccn1)C(=O)N[C@@H](CC(=O)O)C(=O)N[C@H](C(=O)N1CCC[C@@H]1C(N)=O)C(C)C` [896.54] was tested, and the “Relative Potency” value was 13.
For `CC(C)C[C@H](NC(=O)c1cccnc1)C(=O)N[C@@H](CC(=O)O)C(=O)N[C@@H](Cc1ccccc1)C(=O)N1CCC[C@@H]1C(N)=O` [896.55] (Nicotinoyl-LDF[dP]-NH2), the “Relative Potency” value was 105.
`CC(C)C[C@H](NC(=O)Nc1ccccc1)C(=O)N[C@@H](CC(=O)O)C(=O)N[C@@H](Cc1ccccc1)C(=O)N1CCC[C@@H]1C(N)=O` [896.62] ({NHPh-CO}-LDF[dP]-NH2) was tested, and the “Relative Potency” value was 257.

Same assay, conditions: binding inhibition potency relative to standard compound of SEQ ID NO:3 = 1 (normalized IC50); about one-tenth or less assigned zero
With `CC(C)C[C@H](NC(=O)c1ccccc1)C(=O)N[C@@H](CC(=O)O)C(=O)N[C@@H](Cc1ccccc1)C(=O)N1CCC[C@@H]1C(N)=O` [896.28] (Bz-LDF[dP]-NH2) the “Relative Potency” value was 44.6.
`NC(=O)[C@H]1CCCN1C(=O)[C@H](Cc1ccccc1)NC(=O)[C@H](CC(=O)O)NC(=O)[C@H](CC1CCCCC1)NC(=O)c1ccccc1` [896.31] (Bz-[Cha]DF[dP]-NH2) was tested, and the “Relative Potency” value was 11.
`CC(C)[C@H](NC(=O)[C@H](CC(=O)O)NC(=O)[C@H](CC1CCCCC1)NC(=O)c1ccccc1)C(=O)N1CCC[C@@H]1C(N)=O` [896.34] (Bz-[Cha]DV[dP]-NH2) was tested, and the “Relative Potency” value was 6.73.
`CC(C)C[C@H](NC(=O)c1ccccc1)C(=O)N[C@@H](CC(=O)O)C(=O)N[C@H](C(=O)N1CCC[C@H]1C(N)=O)C(C)C` [896.35] was tested, and the “Relative Potency” value was 16.
For `CC(C)C[C@H](NC(=O)Cc1ccccc1)C(=O)N[C@@H](CC(=O)O)C(=O)N[C@H](C(=O)N1CCC[C@@H]1C(N)=O)C(C)C` [896.39], the “Relative Potency” value was 47.5.
For `CC(C)C[C@H](NC(=O)/C=C/c1ccccc1)C(=O)N[C@@H](CC(=O)O)C(=O)N[C@H](C(=O)N1CCC[C@@H]1C(N)=O)C(C)C` [896.41], the “Relative Potency” value was 1.97.
For `CC(C)C[C@H](NC(=O)c1cccc2ccccc12)C(=O)N[C@@H](CC(=O)O)C(=O)N[C@H](C(=O)N1CCC[C@@H]1C(N)=O)C(C)C` [896.43], the “Relative Potency” value was 4.38.
In the case of `CC(C)C[C@H](NC(=O)Cc1ccccc1)C(=O)N[C@@H](CC(=O)O)C(=O)N[C@H](C(=O)N1CCC[C@@H]1C(N)=O)C(C)(C)C` [896.56] (PhAc-LD[Tle][dP]-NH2), the “Relative Potency” value is reported as 1.72.
For `CC(C)C[C@H](NC(=O)Cc1ccccc1)C(=O)N[C@@H](CS)C(=O)N[C@@H](Cc1ccccc1)C(=O)N1CCC[C@@H]1C(N)=O` [896.59] (PhAc-LCF[dP]-NH2), the “Relative Potency” value was 0.
`CC(C)C[C@H](NC(=O)Cc1ccccc1)C(=O)N[C@@H](CC(=O)O)C(=O)N[C@@H](Cc1c[nH]c2ccccc12)C(=O)N1CCC[C@@H]1C(N)=O` [896.60] (PhAc-LDW[dP]-NH2) was tested, and the “Relative Potency” value was 131.
`CC(C)C[C@H](NC(=O)Cc1ccccc1)C(=O)N[C@@H](CC(=O)O)C(=O)N[C@@H](Cc1ccc(O)cc1)C(=O)N1CCC[C@@H]1C(N)=O` [896.61] (PhAc-LDY[dP]-NH2) was tested, and the “Relative Potency” value was 612.
